The text below walks through data of patent US9556205B2, “Fungicide N-[(trisubstitutedsilyl)methyl]-carboxamide derivatives” (BAYER INTELLECTUAL PROPERTY GMBH, priority 2010, dated 2017).

The test system of data set [1] is Pyrenophora teres. As to the kind of experiment: In vivo preventive test on Pyrenophora teres (barley), Example F. The settings on record: for Efficacy: 500 ppm of active ingredient, evaluated 7-9 days after inoculation; for disease control: 500 ppm, comparison with prior-art compound. Here is the method: (§1) Solvent: 49 parts by weight of N,N-dimethylformamide Emulsifier: 1 part by weight of alkylaryl polyglycol ether To produce a suitable preparation of active compound, 1 part by weight of active compound is mixed with the stated amounts of solvent and emulsifier, and the concentrate is diluted with water to the desired concentration. To test for preventive activity, young plants are sprayed with the preparation of active compound at the stated rate of application. One day after this treatment, the plants are inoculated with an aqueous spore suspension of Pyrenophora teres. […] Then the plants are placed in a greenhouse at a temperature of approximately 20° C. and a relative atmospheric humidity of approximately 80%.

Data set [2] has as its system Alternaria solani. As to the kind of experiment: In vivo preventive test on Alternaria solani (tomato). The settings on record: for Efficacy: 500 ppm of active ingredient, evaluated 7 days after inoculation; for disease control: 500 ppm, comparison with prior-art compound. The procedure: as §1, with “Alkylarylpolyglycolether” for “alkylaryl polyglycol ether”, “Alternaria solani.” for “Pyrenophora teres.”, “an incubation cabinet” for “a greenhouse”, “at” for “at a temperature of”, “96%.” for “approximately 80%.”

Data set [3] has as its system Puccinia recondita. Kind of data set: In vivo preventive test on Puccinia recondita (wheat), Example H. The conditions noted are these: 500 ppm, evaluated 7-9 days after inoculation. The procedure:
as §1, with “N,N-dimethylacetamide” for “N,N-dimethylformamide”, “Puccinia recondita.” for “Pyrenophora teres.”

Data set [4] in a line: log P by HPLC on reversed-phase column (C18), EEC Directive 79/831 Annex V.A8. The class given is physicochemical. The settings on record: 40° C., 0.1% aqueous formic acid and acetonitrile, linear gradient 10% to 90% acetonitrile. The procedure: In table 1, the log P values were determined in accordance with EEC Directive 79/831 Annex V.A8 by HPLC (High Performance Liquid Chromatography) on a reversed-phase column (C18), using the method described below:
Temperature: 40° C.; Mobile phases: 0.1% aqueous formic acid and acetonitrile; linear gradient from 10% acetonitrile to 90% acetonitrile.
Calibration was carried out using unbranched alkan-2-ones (comprising 3 to 16 carbon atoms) with known log P values (determination of the log P values by the retention times using linear interpolation between two successive alkanones). lambda-max-values were determined using UV-spectra from 200 nm to 400 nm and the peak values of the chromatographic signals.

Data set [5] relates to Botrytis cinerea. Kind of data set: In vivo preventive test on Botrytis cinerea (beans). The settings on record: 500 ppm of active ingredient, lesion size 2 days after inoculation. The procedure: Solvent: 24.5 parts by weight of acetone
• 24.5 parts by weight of N,N-dimethylacetamide Emulsifier: 1 part by weight of alkylaryl polyglycol ether
(§2) To produce a suitable preparation of active compound, 1 part by weight of active compound is mixed with the stated amounts of solvent and emulsifier, and the concentrate is diluted with water to the desired concentration.
To test for protective activity, young plants are sprayed with the preparation of active compound. After the spray coating has dried on, 2 small pieces of agar covered with growth of Botrytis cinerea are placed on each leaf. The inoculated plants are placed in a darkened chamber at 20° C. and a relative atmospheric humidity of 100%.
2 days after the inoculation, the size of the lesions on the leaves is evaluated. 0% means an efficacy which corresponds to that of the control, while an efficacy of 100% means that no disease is observed. Under these conditions, excellent (at least 95%) to total protection is observed at a dose of 500 ppm of active ingredient with the following compounds from table C: […]

In data set [6] the test system is Venturia inaequalis. As to the kind of experiment: In vivo preventive test on Venturia inaequalis (apple scab). The conditions noted are these: 100 ppm of active ingredient, evaluated 10 days after inoculation. The procedure: Solvent: 24.5 parts by weight of acetone • 24.5 parts by weight of N,N-dimethylacetamide Emulsifier: 1 part by weight of alkylaryl polyglycol ether To produce a suitable preparation of active compound, 1 part by weight of active compound is mixed with the stated amounts of solvent and emulsifier, and the concentrate is diluted with water to the desired concentration. To test for protective activity, young plants are sprayed with the preparation of active compound at the stated rate of application. […] The plants are then placed in a greenhouse at approximately 21° C. and a relative atmospheric humidity of approximately 90%.

Data set [7] relates to Septoria tritici. Kind of data set: In vivo preventive test on Septoria tritici (wheat). The settings on record: 500 ppm of active ingredient, evaluated 21 days after inoculation. The procedure:
Solvent: 49 parts by weight of N,N-dimethylacetamide Emulsifier: 1 part by weight of alkylaryl polyglycol ether To produce a suitable preparation of active compound, 1 part by weight of active compound or active compound combination is mixed with the stated amounts of solvent and emulsifier, and the concentrate is diluted with water to the desired concentration. To test for preventive activity, young plants are sprayed with the preparation of active compound or active compound combination at the stated rate of application. After the spray coating has dried on, the plants are sprayed with a spore suspension of Septoria tritici. […] The plants are placed in a greenhouse at a temperature of approximately 15° C. and a relative atmospheric humidity of approximately 80%.

For data set [8], the system named is Leptosphaeria nodorum. Kind of data set: In vivo preventive test on Leptosphaeria nodorum (wheat). The conditions noted are these: 500 ppm of active ingredient, evaluated 8 days after inoculation. The procedure: Solvent: 49 parts by weight of N,N-dimethylacetamide Emulsifier: 1 part by weight of alkylaryl polyglycol ether To produce a suitable preparation of active compound, 1 part by weight of active compound or the compound combination is mixed with the stated amounts of solvent and emulsifier, and the concentrate is diluted with water to the desired concentration. To test for protective activity, young plants are sprayed with a preparation of active compound or active compound combination at the stated rate of application. After the spray coating has dried on, the plants are sprayed with a spore suspension of Leptosphaeria nodorum. […] The plants are placed in a greenhouse at a temperature of approximately 15° C. and a relative atmospheric humidity of approximately 80%.

Data set [9] has as its system Aflatoxins production by Aspergillus parasiticus. The class given is cell-based.
Data set [10] deals with Aspergillus parasiticus. In kind it is cell-based. The settings on record: 7 days at 20° C., OD620nm.
The test system of data set [11] is Phakopsora pachyrhizi. Kind of data set: In vivo protective test on Phakopsora pachyrhizi (soybean rust). The conditions noted are these: 250 ppm of active ingredient, evaluated 11 days after inoculation. The procedure: Solvent: 28.5 parts by weight of acetone
Emulsifier: 1.5 parts by weight of polyoxyethylene alkyl phenyl ether
as §2
To test for protective activity, young plants are sprayed with the preparation of active compound at the stated rate of application. One day after spraying, the plants are inoculated with an aqueous spore suspension of the causal agent of soybean rust (Phakopsora pachyrhizi). The plants are then placed in a greenhouse at approximately 20° C. and a relative atmospheric humidity of approximately 80%.
The test is evaluated 11 days after the inoculation. 0% means an efficacy which corresponds to that of the control, while an efficacy of 100% means that no disease is observed.
Under these conditions, good (at least 80%) to total protection is observed at a dose of 250 ppm of active ingredient with the following compounds from table G: […]

Molecules are shown by their SMILES.

The logP is a log measure of how a compound divides between an organic and an aqueous phase. A lower logP goes with lower lipophilicity. Turning to `Cc1cc(C(=O)N(C[Si](C)(C)c2ccccc2)C2CCCCC2)c(C)o1` [Example 12], the figures for the Efficacy in data set [1] and in data set [2] were 70% and 80%, respectively. The results for the disease control in [1], in data set [2] and in [3] were 70%, 80% and 40%, respectively. Besides, in data set [4], the logP is given as 5.62.

`Cc1nn(C)c(F)c1C(=O)N(C[Si](C)(C)c1cccc(Cl)c1)C1CC1` [Example 27]: the Efficacy in data set [1] came to 100%; in data set [2], 94%; in data set [5], 98%; in data set [6], 100%; in [7] it was 100%; in data set [8], 100%. Moreover, the logP in data set [4] is on record as 3.67.

As to `Cc1nn(C)c(F)c1C(=O)N(C[Si](C)(C)c1ccccc1Cl)C1CC1` [Example 19], the Efficacy turned out to be 100% in [1]; 100% in data set [2]; 100% in data set [5]; 99% in [6]; 100% in data set [7]; 100% in [8]. In addition, the logP in [4] is on record as 3.60.

Consider `Cn1nc(C(F)F)c(C(=O)N(C[Si](C)(C)Cc2ccccc2)C2CC2)c1F` [Example 55], for which the Efficacy in [1] was found to be 100%; in data set [2], 100%; in data set [5] it was 100%; in [6] it was 100%; in data set [7], 90%; in [8] it was 100%. Besides, the “% Inhibition of Aflatoxin at 50 μM” value in data set [9] is given as 100%. The compound also registered a logP in [4] of 4.03. For the same compound, the “% Inhibition of fungal growth at 50 μM” value in [10] came to 99%.

On to `Cn1nc(C(F)F)c(C(=O)N(C[Si](C)(C)c2ccc(Cl)cc2Cl)C2CC2)c1F` [Example 38], for which the Efficacy in data set [1] worked out at 100%; in data set [2], 94%; in [5] it was 95%; in data set [6] it was 100%; in data set [7] it was 100%; in data set [8], 100%. The compound also displayed an Efficacy in data set [11] of 85%. Moreover, in data set [9], the “% Inhibition of Aflatoxin at 50 μM” value is 100%. Moreover, the logP in data set [4] was found to be 4.78. Further, in data set [10], the “% Inhibition of fungal growth at 50 μM” value is listed as 100%.

In the case of `Cn1cc(C(=O)N(C[Si](C)(C)c2ccc(Cl)cc2Cl)C2CC2)c(C(F)F)n1` [Example 41], the Efficacy in data set [1] came out at 100%; in [2] it was 100%; in data set [5], 98%; in [6] it was 100%; in data set [7], 100%; in [8] it was 95%. Moreover, the logP in [4] came out at 4.41.

Take `Cn1nc(C(F)F)c(C(=O)N(C[Si](C)(C)c2cc(Cl)cc(Cl)c2)C2CC2)c1F` [Example 52]: the Efficacy in data set [1], in [2], in data set [5], in data set [6], in data set [7] and in data set [8] was 100% in each case. The compound further had an Efficacy in data set [11] of 99%. Also, the “% Inhibition of Aflatoxin at 50 μM” value in data set [9] was 100%. In [4], this compound showed a logP of 4.78. In addition, the “% Inhibition of fungal growth at 50 μM” value in data set [10] stood at 100%.

Take `C[Si](C)(CN(C(=O)c1ccco1)C1CCCCC1)c1ccccc1` [N-cyclohexyl-N-{[dimethyl(phenyl)silyl]methyl}-2-furamide, reference compound]: the disease control amounted to 0% in [1], 0% in data set [2] and 10% in [3].

With `Cn1nc(C(F)F)c(C(=O)N(C[Si](C)(C)c2ccccc2Cl)C2CC2)c1F` [Example 18], the Efficacy stood at 100% in [1]; 100% in data set [2]; 99% in data set [6]; 100% in data set [7]; 100% in data set [8]; 80% in data set [11]. In addition, the “% Inhibition of Aflatoxin at 50 μM” value in [9] is 100%. In addition, in data set [4], the logP worked out at 4.13. In addition, the “% Inhibition of fungal growth at 50 μM” value in data set [10] is on record as 100%.

Regarding `Cc1nn(C)c(F)c1C(=O)N(C[Si](C)(C)c1ccc(Cl)cc1Cl)C1CC1` [Example 39], the Efficacy was determined as 100% in data set [1]; 94% in [2]; 100% in data set [6]; 100% in [7]; 94% in data set [8]. In addition, the log partition coefficient (logP) in [4] turned out to be 4.30.

As for `CCc1nn(C)c(F)c1C(=O)N(C[Si](C)(C)c1ccc(Cl)cc1Cl)C1CC1` [Example 42], the Efficacy in data set [1] is listed as 100%; in data set [2] it was 100%; in data set [5], 100%; in data set [6], 99%; in [7], 100%; in data set [8], 100%. The logP in [4] was determined as 4.78.

In the case of `Cn1nc(C(F)F)c(C(=O)N(C[Si](C)(C)c2cccc(Cl)c2)C2CC2)c1F` [Example 31], the Efficacy came out at 100% in data set [1]; 100% in data set [2]; 95% in [5]; 100% in [6]; 100% in data set [7]; 100% in data set [8]. In addition, the Efficacy in data set [11] turned out to be 100%. The “% Inhibition of Aflatoxin at 50 μM” value in data set [9] came to 100%. In data set [4], this compound had a logP of 4.18. Also, in data set [10], the “% Inhibition of fungal growth at 50 μM” value is on record as 100%.
